Assay results as given in patent US9505798B2, “Steroid compounds as RORyt modulators and uses thereof” (New York University, priority 2010, dated 2016).

What was measured:
Assay type in all cases: cell-based
RORγt = molecular target: T1, RORγt (Mus musculus, UniProt P51450)
T1 construct: expressed in transfected cells; host or cells: mouse naive CD4+ T cells, retroviral MIGr vector
Method: (§1) Naive CD25^− CD62L^+CD44^low/int cells were sorted from RORγt^fl/fl mice and transduced with control-IRES-GFP (WT) or CRE-IRES-GFP (KO) retrovirus. […] FACS-sorted naive T cells were transduced with retroviral vectors encoding murine RORα-IRES-GFP or RORγt-IRES-GFP on Day 1 (16 h after TCR stimulation) and GFP expressing cells were gated for analysis on Day 5. […] Lymphocytes were isolated on day 21 after disease induction. The cells were stimulated for 4 h with PMA/Ionomycin and stained for surface markers and intracellular cytokines.
(§2) T cells were purified from lymph nodes and spleens of six to eight weeks old B6 mice (Taconic), by magnetically depleting B220^+ cells (autoMACS, Miltenyi), and then sorting CD8^−DAPI^−CD19^−CD4^+CD25^−CD62L^+CD44^low/Int naive T cells on a FACSAria (BD). […] For T cell polarization, 200 μl cells were seeded at 0.4×10^5 cells per mL in 96-well plates pre-coated with anti-CD3ε (5 μg/mL) and anti-CD28 (10 μg/mL). Cells were cultured for 4-5 days in Th17 (TGF-β (0.3 ng/mL), IL-6 (20 ng/mL), and anti-IFN-γ and anti-IL-4 (2 ng/mL)), Th1 (IL-12 (10 ng/mL), IL-2 (10 U/mL) and anti-IL-4 (2 ng/mL)), or Th2 (IL-4 (10 ng/mL), and anti-P35 and anti-IFN-γ 2 ng/mL)) conditions. For ectopic expression ROR proteins, native CD4^+ T cells were infected with retroviral MIGr-control, MIGr-RORα or MIGr-RORγ 24 hrs after activation, and cultured without exogenous cytokines or only with IL-6. At day 1, compounds dissolved in DMSO were added. For cytokine analysis, cells were incubated for 5 hours with phorbol 12-myristate 13-acetate (50 ng/mL; Sigma), ionomycin (500 ng/mL; Sigma) and GolgiStop (BD). Intracellular cytokine staining was performed according to the manufacturer's protocol (Cytofix/Cytoperm buffer set from BD) with alexa647-conjugated anti-IL-17a (eBioscience), and PE-conjugated anti-IFN-γ or anti-IL-4 (eBioscience). An LSR II (BD Biosciences) and FlowJo software (Tree Star) were used for flow cytometry and analysis. Dead cells were excluded using the Live/Dead fixable aqua dead cell stain kit (Invitrogen).

human androgen receptor = molecular target: T2, human androgen receptor (Homo sapiens, UniProt P10275); test: S2 cell human androgen receptor reporter
T2 construct: expressed in transfected cells; host or cells: Drosophila S2 cells, plasmid pMK33-hAR
T2 sequence (P10275 whole entry): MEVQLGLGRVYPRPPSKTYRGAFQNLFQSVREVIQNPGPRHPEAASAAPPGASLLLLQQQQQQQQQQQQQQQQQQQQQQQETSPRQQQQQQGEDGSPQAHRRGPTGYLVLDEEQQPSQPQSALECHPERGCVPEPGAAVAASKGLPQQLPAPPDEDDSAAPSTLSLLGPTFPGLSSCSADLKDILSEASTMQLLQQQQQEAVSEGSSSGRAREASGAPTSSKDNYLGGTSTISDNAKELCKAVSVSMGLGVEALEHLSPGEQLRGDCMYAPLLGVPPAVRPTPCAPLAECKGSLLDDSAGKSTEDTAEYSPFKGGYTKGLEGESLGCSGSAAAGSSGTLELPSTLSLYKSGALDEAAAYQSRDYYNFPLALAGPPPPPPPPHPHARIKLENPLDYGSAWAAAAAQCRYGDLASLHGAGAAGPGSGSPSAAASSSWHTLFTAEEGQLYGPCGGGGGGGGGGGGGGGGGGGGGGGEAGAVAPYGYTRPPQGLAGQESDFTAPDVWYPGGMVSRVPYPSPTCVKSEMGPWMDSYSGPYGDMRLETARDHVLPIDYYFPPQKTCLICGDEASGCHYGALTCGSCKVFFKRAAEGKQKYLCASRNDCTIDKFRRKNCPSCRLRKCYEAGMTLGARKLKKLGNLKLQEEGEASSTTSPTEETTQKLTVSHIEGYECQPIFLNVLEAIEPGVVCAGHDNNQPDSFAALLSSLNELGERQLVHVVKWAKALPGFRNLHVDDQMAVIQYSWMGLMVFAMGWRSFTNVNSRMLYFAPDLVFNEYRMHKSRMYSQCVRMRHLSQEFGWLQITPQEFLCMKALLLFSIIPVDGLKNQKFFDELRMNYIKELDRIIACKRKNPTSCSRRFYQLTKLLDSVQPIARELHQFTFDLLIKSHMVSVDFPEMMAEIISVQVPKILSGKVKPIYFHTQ

[1] = tested on: IL-17a production in human CD4+ T cells; test: Human cord blood CD4+ T cells expressing murine ATP1a1, Th17 conditions; details: murine Na+/K+-ATPase α1 expressed, 10 μM
Method: (§3) Blood samples were obtained from the New York Blood Center. Mononuclear cells were prepared from buffy coats from healthy adult donors or from cord blood, using FicollPAQUE gradients. CD4^+ T cells were magnetically selected (autoMACS, Miltenyi). Adult memory CD4+ T cell subsets were further purified as CD3^+CD4^+CD25^−CD45RO^+CCR6^+CD161^+ by cell sorting on a FACSAria (BD). Naive CD4^+ T cells were isolated from cord blood as CD3^+CD4^+CD45RA^+HLA^−DR^−CD25^−DAPI^−. Memory cells were activated with anti-CD3/CD28 coated beads (1 bead/cell) in T cell media (see above) supplemented with 100 U/mL IL-2 (Peprotech), 10 ng/mL IL-1β and 10 ng/mL IL-23 (eBioscience). Naive cells were activated with anti-CD3/CD28 beads and cultured with the same cytokines, and TGF-β (0, 0.1, 1, or, 10 ng/mL) (Peprotech), in XVIVO-20 (Lonza) media. […] Naive CD4+ T cells, cultured in XVIVO-20 media supplemented with 100 U/mL IL-2 (Peprotech), were transduced with RORαd-IRES-GFP or RORγt-IRES-GFP on day 1 and analyzed on day 6. GFP expressing cells were gated for analysis. DMSO or compounds were added 6-8 hours after the viral transduction.

[2] = tested on: mouse Th17 cell differentiation; test: In vitro mouse naive CD4+ T cell polarization
Method: as §1, §2
Complementary DNAs (cDNAs) were synthesized from TRIzol (Invitrogen) isolated RNA, using M-MLV Reverse Transcriptase (Promega). Real-time RT-PCR was performed with SYBRgreen master mix (Roche) and the Roche real-time PCR system (Roche480). Gene specific values were normalized to Actb for each sample.

[3] = tested on: pre-differentiated mouse Th17 cells; test: Pre-differentiated mouse Th17 cells from MOG-immunized mice, in vitro; details: expanded Th17 cells from immunized mice, 10 μM
Excerpt: Mononuclear cells were collected from draining lymph nodes of wild-type or IL-23RGFP knock-in heterozygous mice 7 days after MOG(35-55)/CFA injection.

[4] = tested on: human Th17 cell differentiation; test: Human Th17 cell differentiation from naive cord blood CD4+ T cells
Method: GFP expressing cells were gated for analysis. DMSO, Dig(dhd) (40 μM) or Dig(sal) (10 μM) was added 6-8 h after viral transduction. c, Flow cytometry of the production of IL-17a and IFN-γ by human naive cord blood T cells cultured for six days in the presence of IL-2, IL-23, and IL-1β, with various concentrations of TGF-β. DMSO, Dig(dhd), or Dig(sal) at indicated concentrations (μM) was added 16 h after cytokine addition.
Blood samples were obtained from the New York Blood Center. Mononuclear cells were prepared from buffy coats from healthy adult donors or from cord blood, using FicollPAQUE gradients. CD4^+ T cells were magnetically selected (autoMACS, Miltenyi). Adult memory CD4^+ T cell subsets were further purified as CD3^+CD4^+CD25^− CD45RO^+CCR6^+CD161^+ by cell sorting on a FACSAria (BD). Naive CD4^+ T cells were isolated from cord blood as CD3^+CD4^+CD45RA^+HLA-DR^−CD25^−DAPI^−. Memory cells were activated with anti-CD3/CD28 coated beads (1 bead/cell) in T cell media (see above) supplemented with 100 U/mL IL-2 (Peprotech), 10 ng/mL IL-1b and 10 ng/mL IL-23 (eBioscience). Naive cells were activated with anti-CD3/CD28 beads and cultured with the same cytokines, and TGF-b (0, 0.1, 1, or, 10 ng/mL) (Peprotech), in XVIVO-20 (Lonza) media. […] Naive CD4^+ T cells, cultured in XVIVO-20 media supplemented 100 U/mL IL-2 (Peprotech), were transduced with RORad-IRES-GFP or RORγt-IRES-GFP on day 1 and analyzed on day 6. GFP expressing cells were gated for analysis. DMSO or compounds were added 6-8 hours after the viral transduction.
as §3

T1 sequence (P51450 other isoform, or with tags, fused parts or gaps): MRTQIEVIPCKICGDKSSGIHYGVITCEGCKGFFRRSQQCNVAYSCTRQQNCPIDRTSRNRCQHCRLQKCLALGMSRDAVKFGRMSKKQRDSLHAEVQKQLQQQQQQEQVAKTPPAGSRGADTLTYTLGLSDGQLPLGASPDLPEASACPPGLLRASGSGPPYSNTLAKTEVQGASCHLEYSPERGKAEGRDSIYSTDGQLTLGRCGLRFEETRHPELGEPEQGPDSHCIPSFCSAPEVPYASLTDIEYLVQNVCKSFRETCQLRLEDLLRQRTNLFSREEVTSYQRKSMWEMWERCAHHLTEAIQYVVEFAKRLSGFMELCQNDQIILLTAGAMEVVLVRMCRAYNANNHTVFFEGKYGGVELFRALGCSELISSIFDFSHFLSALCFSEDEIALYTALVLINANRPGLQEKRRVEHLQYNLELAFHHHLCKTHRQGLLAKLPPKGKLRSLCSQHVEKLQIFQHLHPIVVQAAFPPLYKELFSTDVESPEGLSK

Structure (SMILES)	RORγt- versus RORα-mediated induction of IL-17a (RORγt)	inhibition of human androgen receptor activity (human androgen receptor)	IL-17a expression [1]	differentiation of naive CD4+ T cells into Th1, Th2 and regulatory T cells [2]	induction of RORγt mRNA and protein expression ([2]; Th17 conditions)	transcriptional up-regulation of IL-23 receptor (IL-23R) gene ([2]; Th17 polarizing conditions)	expression of IL-17a mRNA and protein ([2]; Th17 polarizing conditions, 10 μM)	IL-23R and IL-17a expression [3]	expression of CCR6 [4]	IFN-γ expression in T cells ([4]; FIG. 3c)	Th17 cell differentiation ([4]; FIG. 3c)	inhibition at 40 µM ([4]; Homo sapiens, CD4+ T, read-out: Th17 inhibition) [%]
C[C@H]1O[C@@H](O[C@H]2[C@@H](O)C[C@H](O[C@H]3[C@@H](O)C[C@H](O[C@H]4CC[C@@]5(C)[C@H](CC[C@@H]6[C@@H]5C[C@@H](O)[C@]5(C)[C@@H](C7=CC(=O)OC7)CC[C@]65O)C4)O[C@@H]3C)O[C@@H]2C)C[C@H](O)[C@@H]1O [Digoxin]	suppressed RORγt—but not RORα-mediated induction of IL-17a	did not inhibit	suppressed IL-17a production without affecting IFN-γ expression	no effect	not affected	strongly inhibited	markedly reduced	inhibited both IL-23R (FIG. 4a) and IL-17a (FIG. 4b, bottom) expression without affecting IFN-γ expression				
CC1O[C@@H](OC2C(C)O[C@H](OC3C(C)O[C@@H](O[C@H]4CC[C@@]5(C)[C@H](CC[C@@H]6[C@@H]5C[C@@H](O)[C@]5(C)[C@@H](C(CO)CCO)CC[C@]65O)C4)C[C@H]3O)C[C@H]2O)C[C@@H](O)C1O (stereo partly drawn) [Compound 13, 20,22-Dihydrodigoxin-21,23-diol]									reduced	reciprocal increases	blocked	~80
